Results on three compounds are retold here after patent US20150245613A1 (priority 2012, published 2015).

Molecules are shown by their SMILES. Where two headings read alike, the source gives them in different places.

The subject of one assay is wheat brown rust. Briefly: Test Example 5: controlling effect on wheat brown rust, field test (cultivar NORIN No. 61), Colby. Format: in vivo, Puccinia recondita. The settings on record: 20 days after spray. From the text:
A (theoretical) preventive value obtained in a case where the chemical suspension is sprayed=A1+((100−A1)×A2)/100
where A1 and A2 represent (i) the preventive value obtained in a case where the compound I-1 is sprayed and (ii) the preventive value obtained in a case where fluxapyroxad is sprayed.
Wheat seeds (cultivar: NORIN No. 61) were sown in a field in autumn of one (1) year earlier than a year when chemicals were sprayed, and the chemicals were sprayed over wheat plants at the flowering stage of the wheat plants. […] Specifically, the wheat seeds were sown in two rows with 30 cm inter-row spacing in the field in the autumn. (i) Chemical suspensions each of which contained the compound I-1 and Fluxapyroxad, (ii) a chemical suspension containing the compound I-1 and (iii) chemical suspensions each of which contained Fluxapyroxad, were diluted with water so that each ingredient of the chemical suspensions was in a predetermined amount to be used. Each of the chemical suspensions was then sprayed over the wheat plants at the flowering stage in the year. After the spray of the chemical suspensions, a pot, in which diseased wheat plants with brown rust were planted, was put in each test plot between the two rows of the wheat plants so that the wheat plants were prompted to get infected with wheat brown rust. Each test was conducted in three test plots, each of which test plots is of 0.5 m×4 m (2 m^2). In 20 days after the spray of the chemical suspensions, the occurrence of wheat brown rust was investigated in 20 flag leaves which were selected at random from one of the three test plots. An index of the occurrence (index of disease severity of wheat brown rust) was then calculated. A theoretical preventive value (an expected preventive value) obtained in a case where the chemical suspension containing the compound I-1 and Fluxapyroxad is sprayed was calculated, by use of the above Colby's formula (see Test Example 1), on the basis of (i) a preventive value obtained in a case where only the compound I-1 is sprayed and (ii) a preventive value obtained in a case where only fluxapyroxad is sprayed.

The subject of assay [1] is wheat Fusarium head blight. Format: in vivo, Fusarium graminearum. The settings on record: cut wheat ears, 5 days after inoculation.
Assay [2] concerns wheat Fusarium head blight. The assay is classed as in vivo, Fusarium graminearum. The settings on record: cut wheat ears, 5 days after inoculation. This is another data set of the same source.

Take `C[C@]1(CCl)CC[C@@H](Cc2ccc(Cl)cc2)[C@]1(O)Cn1cncn1` (racemic) [Compound I-1, (1RS,2SR,5SR)-5-(4-chlorobenzyl)-2-chloromethyl-2-methyl-1-(1H-1,2,4-triazole-1-ylmethyl)cyclopentanol]: the Actual preventive value stood at 42.6 in the assay on wheat brown rust (Compound I-1 7.5 g/ha, Fluxapyroxad 0 g/ha, from average disease occurrence area ratios of flag leaves); 16.4 with wheat brown rust (Compound I-1 7.5 g/ha, Fluxapyroxad 0 g/ha, from disease occurrence ratios of flag leaves); 13 in assay [1] (Compound I-1 5 g/ha, Fluxapyroxad 0 g/ha); 39 in assay [1] (Compound I-1 10 g/ha, Fluxapyroxad 0 g/ha); 61 in assay [1] (Compound I-1 20 g/ha, Fluxapyroxad 0 g/ha).
Regarding `Cn1cc(C(=O)Nc2ccccc2-c2cc(F)c(F)c(F)c2)c(C(F)F)n1` [Fluxapyroxad, 3-(difluoromethyl)-1-methyl-N-(3′,4′,5′-trifluorobiphenyl-2-yl)pyrazole-4-carboxamido], the Actual preventive value in the assay with wheat brown rust (Compound I-1 0 g/ha, Fluxapyroxad 7.5 g/ha, from average disease occurrence area ratios of flag leaves) is reported as 29.3; in the assay on wheat brown rust (Compound I-1 0 g/ha, Fluxapyroxad 7.5 g/ha, from disease occurrence ratios of flag leaves), 6.8; with wheat brown rust (Compound I-1 0 g/ha, Fluxapyroxad 30 g/ha, from average disease occurrence area ratios of flag leaves), 80.6; with wheat brown rust (Compound I-1 0 g/ha, Fluxapyroxad 30 g/ha, from disease occurrence ratios of flag leaves), 64.4; in assay [2] (Compound I-2 0 g/ha, Fluxapyroxad 10 g/ha), 8; in assay [2] (Compound I-2 0 g/ha, Fluxapyroxad 20 g/ha), 16. The Actual preventive value stood at 14 in assay [2] (Compound I-2 0 g/ha, Fluxapyroxad 30 g/ha); 9 in assay [2] (Compound I-2 0 g/ha, Fluxapyroxad 40 g/ha); 3 in assay [1] (Compound I-1 0 g/ha, Fluxapyroxad 10 g/ha); 0 in assay [1] (Compound I-1 0 g/ha, Fluxapyroxad 20 g/ha); 4 in assay [1] (Compound I-1 0 g/ha, Fluxapyroxad 40 g/ha).
For `C[C@]1(CCl)CC[C@@H](Cc2ccc(F)cc2)[C@]1(O)Cn1cncn1` (racemic) [Compound I-2, (1RS,2SR,5SR)-2-chloromethyl-5-(4-fluorobenzyl)-2-methyl-1-(1H-1,2,4-triazole-1-ylmethy)cyclopentanol], the Actual preventive value in assay [2] (Compound I-2 5 g/ha, Fluxapyroxad 0 g/ha) came out at 34; in assay [2] (Compound I-2 10 g/ha, Fluxapyroxad 0 g/ha) it was 45; in assay [2] (Compound I-2 15 g/ha, Fluxapyroxad 0 g/ha), 62; in assay [2] (Compound I-2 20 g/ha, Fluxapyroxad 0 g/ha), 78.
